Non-standard residues stand in square brackets, D forms with d. Residues, ends and D or L forms follow the SMILES beside them. *: point of attachment. NOTA = O=C(O)CN1CCN(CC(=O)O)CCN(CC(=O)*)CC1
Experiments:
melanoma cells = assay: In vitro cell binding of radiolabeled peptide; type: cell-based; conditions: 1 million cells per well, 320,000 cpm; maximum at 10 min, constant for 50 min
Protocol: Tissue culture wells containing 1 million cells each were incubated with 320,000 cpm of ^62Cu-NOTA-2-GGG-Arg11 for various times between 5 min and 50 min then washed and counted. […] In vitro cell binding of 10% for the ^62Cu-NOTA-2-GGG-Arg11 peptide is similar to then in vitro cell uptake percentages for HPLC purified.

B16/F1 flank tumor [1] = assay: PET imaging study in tumor bearing mice (microPET-Focus); type: in vivo; conditions: static imaging for 20 min starting 10 min post administration
Protocol: Pilot Animal Studies using ^62Cu labeled Peptide: Biodistribution and PET studies of radiolabeled ^62Cu-NOTA-2-GGG-Arg11 were performed in B16/F1 flank tumor bearing C57 mice utilizing the newly designed nanogenerator with the 5 μg lyophilized peptide kits. Fourteen male and female, 6-8 week old mice were injected with B16/F1 cells (1,000,000/mouse) in the flanks or shoulders while anesthetized to induce solid tumors. B16/F1 solid tumors appeared in 14 days post inoculation. […] Animals in the biodistribution studies were sacrificed by cervical dislocation followed by pneumothorax at 10, 20, and 40 min post administration, major organs removed, weighed, and radioactivity quantitated in a windowed gamma counter.
A preliminary PET imaging study was also performed, in which two anesthetized animals were used for PET imaging studies starting at 10 min post administration of the radiolabeled peptide and statically imaged with a microPET-Focus scanner (Siemens Preclinical Solutions, Knoxville, Tenn.) for 20 min (see FIG. 9). […] Background levels of radioactivity in the blood and major organs and tissues were low, except for the kidneys.

[2] = Biodistribution in B16/F1 flank tumor bearing C57 mice; type: in vivo; conditions: both sexes, C57, mouse, tumor (B16/F1 flank tumor), iv, 0.27 mCi, total radioactivity; 40 min post injection; tail vein
Protocol: (§1) Pilot Animal Studies using ^62Cu labeled Peptide: Biodistribution and PET studies of radiolabeled ^62Cu-NOTA-2-GGG-Arg11 were performed in B16/F1 flank tumor bearing C57 mice utilizing the newly designed nanogenerator with the 5 μg lyophilized peptide kits. Fourteen male and female, 6-8 week old mice were injected with B16/F1 cells (1,000,000/mouse) in the flanks or shoulders while anesthetized to induce solid tumors. B16/F1 solid tumors appeared in 14 days post inoculation. Radiolabeled peptides were injected through the tail vein at an average of 0.27 mCi per dose administration for biodistribution studies and an average of 0.7 mCi for imaging, achieving specific activities of 111.2-140.4 Ci/μmol (mean=122.1 Ci/μmol), and an average of 94.0% radiolabeling yield without a purification step after synthesis. Animals in the biodistribution studies were sacrificed by cervical dislocation followed by pneumothorax at 10, 20, and 40 min post administration, major organs removed, weighed, and radioactivity quantitated in a windowed gamma counter.
(§2) Uptake was measured for the tumor, blood, heart, lung, liver, small intestine, intestine, kidneys, muscle, carcass and paper, and skin. Tumor uptake was rapid, reaching 4.65±0.48 ID/g and 9.43±2.69% ID/g at 20 and 40 min post injection, respectively.

B16/F1 flank tumor [3] = assay: as above; type: in vivo; conditions: for Tumor uptake: tail vein
Protocol: as §1, §2

melanocortin-1 receptor = molecular target: T1, melanocortin-1 receptor (Mus musculus, UniProt Q01727); conditions: comparison value for the optimal peptide construct for Cu-64; cited from earlier work
T1 construct: endogenous in cells; host or cells: B16/F1 cells
T1 sequence (Q01727 whole entry): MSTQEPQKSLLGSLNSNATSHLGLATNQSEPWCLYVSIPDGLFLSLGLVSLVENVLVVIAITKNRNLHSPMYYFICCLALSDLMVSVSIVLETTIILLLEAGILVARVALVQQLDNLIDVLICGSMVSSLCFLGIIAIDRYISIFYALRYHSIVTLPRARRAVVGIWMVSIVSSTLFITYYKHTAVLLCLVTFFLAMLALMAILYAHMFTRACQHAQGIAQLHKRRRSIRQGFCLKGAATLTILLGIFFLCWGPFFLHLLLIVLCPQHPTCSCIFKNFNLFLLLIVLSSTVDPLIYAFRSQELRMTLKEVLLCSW

tissue uptake at 40 min [2] [%ID/g] | Tumor uptake (B16/F1 flank tumor [3]; 20 min post injection) [%ID/g] | Tumor uptake (B16/F1 flank tumor [3]; 40 min post injection) [% ID/g] | Molecule | Maximum cell uptake of the radiolabeled peptide (melanoma cells) [%] | PET tumor visualization (B16/F1 flank tumor [1]) | Tumor uptake in the blocked mice relative to radiolabeled peptide alone (B16/F1 flank tumor [3]; 20 min post injection, 20 μg non-labeled NDP-MSH co-injected) | Clearance and route of excretion (B16/F1 flank tumor [3]; biodistribution at 10, 20 and 40 min) | IC50 (melanocortin-1 receptor) [nM]
9.43 ± 2.69 | 4.65 ± 0.48 | 9.43±2.69 | CC(C)[C@H](NC(=O)[C@@H]1CCCN1C(=O)[C@H](CCCNC(=N)N)NC(=O)[C@H](CS)NC(=O)[C@H](Cc1c[nH]c2ccccc12)NC(=O)[C@H](CCCNC(=N)N)NC(=O)[C@@H](Cc1ccccc1)NC(=O)[C@H](Cc1c[nH]cn1)NC(=O)[C@H](CCC(=O)O)NC(=O)[C@H](CS)NC(=O)[C@H](CS)NC(=O)CNC(=O)CNC(=O)CNC(=O)CN1CCN(CC(=O)O)CCN(CC(=O)O)CC1)C(N)=O [^62Cu-NOTA-2-GGG-Arg11, metal not drawn] ({NOTA}-GGGCCEH[dF]RWCRPV-NH2) | 10 | tumor is clearly visualized | 0.55 % of tumor uptake in the mice receiving the radiolabeled peptide alone | clearance from the blood and non-target tissues except for the kidneys, which was the primary route of excretion | 
 |  |  | CBTE2A-ReCCMSH [CBTE2A conjugated ReCCMSH peptide, the optimal peptide construct for Cu-64] |  |  |  |  | 5.4
